US8680132B2, “Spiro-oxindole MDM2 antagonists” (priority 2010, dated 2014)
Where “and” joins values, the source holds several entries; their conditions need not be identical. Identical values can stand only once. Counter-ions that a name gives are not always drawn. Like-named read-outs stand apart in the source and are kept apart here.

How the values were obtained:
[1] = tested on: SJSA-1 (p53 wild-type); assay: Cell growth assay (WST-8); assay type: cell-based
[2] = tested on: PC-3 (deleted p53); assay: Cell growth assay (WST-8); assay type: cell-based
[3] = tested on: HCT-116 (p53—/—); assay: Cell growth assay (WST-8); assay type: cell-based; details: Homo sapiens, read-out: IC50 HCT-116 (p53—/—)
[4] = target: recombinant human His-tagged MDM2 protein (residues 1-118) (Homo sapiens (Human), UniProt Q00987); assay: Fluorescence-polarization MDM2 binding assay (Example 2); details: Table 2A; no unit in the cell (μM unless otherwise indicated)
[5] = tested on: HCT-116 (p53 wild-type); assay: Cell growth assay (WST-8); assay type: cell-based, human
[6] = tested on: LNCAP (p53 wild-type); assay: Cell growth assay (WST-8); assay type: cell-based, human
[7] = tested on: RKO; assay: Anti-proliferative ATP assay; assay type: cell-based; details: Homo sapiens, colon, p53 WT/WT
[8] = tested on: JAR; assay: Anti-proliferative ATP assay; assay type: cell-based; details: placenta, p53 WT/WT, MDM2 amplified
[9] = tested on: LnCap; assay: Anti-proliferative ATP assay; assay type: cell-based; details: Homo sapiens, prostate, p53 WT/WT
[10] = tested on: CCF-STTG1; assay: Anti-proliferative ATP assay; assay type: cell-based; details: Homo sapiens, CNS, p53 WT/WT, MDM2 amplified
[11] = tested on: MCF7; assay: Anti-proliferative ATP assay; assay type: cell-based; details: Homo sapiens, breast, p53 WT/WT
[12] = tested on: 22RV1; assay: Anti-proliferative ATP assay; assay type: cell-based; details: Homo sapiens, prostate, p53 WT/MUT
[13] = tested on: RS4; 11; assay: Anti-proliferative ATP assay; assay type: cell-based; details: Homo sapiens, ALL, p53 WT/WT
[14] = tested on: SR; assay: Anti-proliferative ATP assay; assay type: cell-based; details: Homo sapiens, lymphoma, p53 WT/WT
[15] = tested on: Capan2; assay: Anti-proliferative ATP assay; assay type: cell-based; details: Homo sapiens, Capan-2, pancreas, p53 —/—
[16] = tested on: LY3; assay: Anti-proliferative ATP assay; assay type: cell-based; details: ABC-DLBCL, p53 WT/WT
[17] = tested on: Ku812; assay: Anti-proliferative ATP assay; assay type: cell-based; details: Homo sapiens, CML-BC, p53 WT/WT
[18] = tested on: SNU-1; assay: Anti-proliferative ATP assay; assay type: cell-based; details: Homo sapiens, SNU1, gastric, p53 WT/WT, KRAS mut
[19] = tested on: H1299; assay: Anti-proliferative ATP assay; assay type: cell-based; details: Homo sapiens, NCI-H1299, lung, p53 —/—
[20] = tested on: MV4; 11; assay: Anti-proliferative ATP assay; assay type: cell-based; details: Homo sapiens, AML, p53 WT/WT, FLT3-ITD
[21] = tested on: HCT116; assay: Anti-proliferative ATP assay; assay type: cell-based; details: Homo sapiens, HCT-116, colon, p53 WT/WT
[22] = tested on: SNU-5; assay: Anti-proliferative ATP assay; assay type: cell-based; details: Homo sapiens, gastric, Met amplified
[23] = tested on: EHEB; assay: Anti-proliferative ATP assay; assay type: cell-based; details: CLL, p53 WT/WT
[24] = tested on: prostate cancer cell line 22Rv1; assay: Growth inhibition assay (Celltiter-Glo), 22Rv1; assay type: cell-based; details: Homo sapiens; 22Rv1; 96 h; 96-well format; read-out: IC50 growth inhibition
[25] = tested on: Y79; assay: Anti-proliferative ATP assay; assay type: cell-based; details: Homo sapiens, retinoblastome, p53 WT/WT, Rb mutated
[26] = tested on: RS4; 11 (p53 wt); details: read-out: RS4, Four day treatment
[27] = tested on: U2OS; assay: Anti-proliferative ATP assay; assay type: cell-based; details: Homo sapiens, bone, p53 WT/WT
[28] = tested on: SJSA-1 (osteosarcoma) tumors; assay: In vivo efficacy, SJSA-1 xenograft model; parameters: species or system mice; details: single 200 mg/kg dose (QD1 treatment) versus QD7 treatment; FIG. 22
Method: A cell sample was mixed 1:1 with Trypan Blue (GIBCO™, Invitrogen Corp.) and counted on a hemocytometer to determine the number of live/dead cells. Cells were washed once with 1×PBS (GIBCO™, Invitrogen Corp.) and resuspended in PBS. […] Cells were injected s.c. into the flank region of each mouse using a 27 gauge needle. The size of tumors growing in the mice was measured in two dimensions using calipers. Tumor volume (mm^3)=(A×B^2)/2 where A and B are the tumor length and width (in mm), respectively. During treatment, tumor volume and body weight was measured three times a week. After the treatment was stopped, tumor volume (FIGS. 17, 20, 22, and 23) and body weight (FIGS. 18 and 21) was measured at least once a week. Mice were kept for an additional 60 days for further observation of tumor growth and toxicity. […] Before treatment began, tumors were allowed to grow to 60-140 mm^3 in volume, at which point the blood vessel supplies to the tumor should have been established. […] The Control group received vehicle alone (10% PEG 400:3% Cremophor:87% PBS).

[29] = tested on: DoHH2; assay: Anti-proliferative ATP assay; assay type: cell-based; details: Homo sapiens, DOHH-2, GCB-DLBCL, p53 WT/WT, BCL2 overexpression
[30] = tested on: SJSA1; assay: Anti-proliferative ATP assay; assay type: cell-based; details: Homo sapiens, SJSA-1, bone, p53 WT/WT, MDM2 amplified
[31] = tested on: MOLM13; assay: Anti-proliferative ATP assay; assay type: cell-based; details: Homo sapiens, MOLM-13, AML, p53 WT/WT, FLT3-ITD
Method: The anti-proliferative IC50 was determined by ATP assay.

[32] = tested on: Ly7; assay: Anti-proliferative ATP assay; assay type: cell-based; details: GCB-DLBCL, p53 WT/MUT
[33] = tested on: Rec1; assay: Anti-proliferative ATP assay; assay type: cell-based; details: Homo sapiens, MCL, p53 WT/WT
[34] = tested on: Hs746T; assay: Anti-proliferative ATP assay; assay type: cell-based; details: Homo sapiens, gastric, Met amplified
[35] = tested on: H929; assay: Anti-proliferative ATP assay; assay type: cell-based; details: Homo sapiens, NCI-H929, MM, p53 WT/WT
[36] = tested on: Ly10; assay: Anti-proliferative ATP assay; assay type: cell-based; details: ABC-DLBCL, p53 WT/WT
[37] = tested on: MKN45; assay: Anti-proliferative ATP assay; assay type: cell-based; details: Homo sapiens, MKN-45, gastric, p53 WT/WT, Met amplified
[38] = tested on: RS4; 11 (p53 wt); assay: cells; details: Homo sapiens, RS4-11, 96 h, read-out: RS4; 11 (p53 wt) IC50 (μM), Four day treatment
[39] = Homo sapiens, SJSA-1; read-out: IC50 SJSA-1 (p53 wild-type)
[40] = read-out: IC50 PC-3 (deleted p53)
[41] = Homo sapiens, LNCaP; read-out: IC50 LNCAP (p53 wild-type)

Sequence of recombinant human His-tagged MDM2 protein (residues 1-118) (Q00987 1-118): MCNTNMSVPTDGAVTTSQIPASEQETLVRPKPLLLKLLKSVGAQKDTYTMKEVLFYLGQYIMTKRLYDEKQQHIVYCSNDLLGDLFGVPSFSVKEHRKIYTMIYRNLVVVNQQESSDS

Compound: CC(C)(C)C[C@H]1N[C@@H](C(=O)N[C@H]2C[C@@](C)(O)C2)[C@H](c2cccc(Cl)c2)[C@@]12C(=O)Nc1cc(F)c(F)cc12 [C035]
- IC50 [1, 39]: < 5000 nM
- IC50 [2, 40]: > 10000 nM
- IC50 ([3]; HCT-116): > 10000 nM
- IC50 [4]: < 3 µM
- IC50 ([5]; Homo sapiens, HCT-116; read-out: IC50 HCT-116 (p53 wild-type)): < 5000 nM
- IC50 [6, 41]: < 5000 nM

Compound: O=C(NC1CCC(O)CC1)[C@@H]1N[C@@H](c2ccccc2)[C@@]2(C(=O)Nc3cc(Cl)ccc32)[C@H]1Cc1ccccc1 (single isomer, unassigned) [CB083-Isomer B]
- IC50 [4]: > 5 µM

Compound: CC(C)(C)C[C@H]1N[C@@H](C(=O)N[C@H]2C[C@](C)(O)C2)[C@H](c2cccc(Cl)c2F)[C@@]12C(=O)Nc1cc(Cl)ccc12 [MI-519-65]
- IC50 ([1]; Homo sapiens, SJSA-1, read-out: IC50 SJSA-1 (p53 wild-type)): < 3000 nM
- IC50 ([5]; Homo sapiens, HCT-116, read-out: IC50 HCT-116 (p53 wild-type)): < 3000 nM
- IC50 ([6]; Homo sapiens, LNCaP, read-out: IC50 LNCAP (p53 wild-type)): < 3000 nM

Compound: CC(C)(C)C[C@@H]1N[C@@H](C(=O)NC2CCC(O)CC2)[C@H](c2cccc(Cl)c2F)[C@]12C(=O)Nc1cc(Cl)ccc12 (stereo partly drawn) [MI-77301 (free amine)]
- IC50 [7]: 480 nM
- IC50 [8]: 169 nM
- IC50 [9]: 50 nM
- IC50 [10]: 162 nM
- IC50 ([1]; Homo sapiens, SJSA-1, 96 h, read-out: IC50 SJSA-1 (p53 wild-type), Four day treatment): 58 ± 23 nM
- IC50 [11]: 201 nM
- IC50 [12]: 399 nM
- IC50 [13]: 28 nM
- IC50 [14]: 14.9 nM
- IC50 [15]: > 10000 nM
- IC50 [16]: 280 nM
- IC50 ([2]; 96 h, read-out: IC50 PC-3 (deleted p53), Four day treatment): 8450 ± 350 nM
- IC50 [17]: > 10000 nM
- IC50 [18]: 77 nM
- IC50 [19]: > 10000 nM
- IC50 [20]: 45.4 nM
- IC50 [21]: 229 nM
- IC50 [22]: > 10000 nM
- IC50 [23]: 70 nM
- IC50 [24]: 100 to 500 nM
- IC50 [25]: 430 nM
- IC50 [26]: 102 nM and 81 nM
- IC50 [27]: > 10000 nM
- IC50 ([5]; Homo sapiens, HCT-116, 96 h, read-out: IC50 HCT-116 (p53 wild-type), Four day treatment): 33 ± 10 nM
- antitumor efficacy (tumor volume) [28]: comparable efficacy to a continuous dosing regimen
- IC50 [29]: 39.3 nM
- IC50 [30]: 145 nM
- IC50 ([6]; Homo sapiens, LNCaP, 96 h, read-out: IC50 LNCAP (p53 wild-type), Four day treatment): 54 ± 8 nM
- IC50 [31]: 14.7 nM
- IC50 [32]: > 10000 nM
- IC50 [33]: 738 nM
- IC50 [34]: 10000 nM
- IC50 [35]: 114 nM
- IC50 [36]: 90 nM
- IC50 [37]: > 10000 nM

Compound: CC(C)(C)C[C@@H]1N[C@@H](C(=O)N[C@H]2C[C@@](C)(O)C2)[C@H](c2cccc(Cl)c2F)[C@]12C(=O)Nc1c2ccc(Cl)c1F
- IC50 [1, 39]: 200 nM
- IC50 [2, 40]: 10100 nM
- IC50 [4]: < 0.1 µM
- IC50 [6, 41]: 300 nM

Compound: CN1[C@@H](CC(C)(C)C)[C@@]2(C(=O)Nc3cc(Cl)ccc32)[C@@H](c2cccc(Cl)c2F)[C@@H]1C(=O)N[C@H]1C[C@@](C)(O)C1 [C30201]
- IC50 [4]: < 0.1 µM

Compound: CC(C)(C)C[C@H]1N[C@@H](C(=O)N[C@H]2C[C@@](C)(O)C2)[C@H](c2cccc(Cl)c2F)[C@@]12C(=O)Nc1cc(Cl)ccc12 [MI-519-64]
- IC50 ([1]; Homo sapiens, SJSA-1, 96 h, read-out: IC50 SJSA-1 (p53 wild-type)): 270 nM
- IC50 ([2]; 96 h, read-out: IC50 PC-3 (deleted p53)): 6100 nM
- IC50 ([3]; HCT-116, 96 h): 13700 nM
- IC50 ([5]; Homo sapiens, HCT-116, 96 h, read-out: IC50 HCT-116 (p53 wild-type)): 180 nM
- IC50 ([6]; Homo sapiens, LNCaP, 96 h, read-out: IC50 LNCAP (p53 wild-type)): 500 nM

Compound: CC(C)(C)C[C@@H]1N[C@@H](C(=O)NC2CCC(O)CC2)[C@H](c2cccc(Cl)c2F)[C@]12C(=O)Nc1cc(Cl)ccc12 (stereo partly drawn) [MI-77301 (TFA salt)]
- IC50 ([1]; read-out: IC50 SJSA-1 (p53 wild-type); Four day treatment): 83 nM and 75 nM
- IC50 [38]: 0.059 ± 0.025 µM
- IC50 ([2]; read-out: IC50 PC-3 (deleted p53), Four day treatment): 13000 ± 3000 nM
- IC50 ([5]; read-out: IC50 HCT-116 (p53 wild-type); Four day treatment): 48 ± 14 nM
- IC50 ([6]; read-out: IC50 LNCAP (p53 wild-type); Four day treatment): 86 ± 16 nM
